ChEMBL document CHEMBL5465560, “Selectivity Literature for EUbOPEN Chemogenomic Library” (2024)

Experiments:
[1] = target: Ribosomal protein S6 kinase alpha-3 (Homo sapiens, UniProt P51812); test: Selectivity interaction (KinomeScan (DiscoverX)) EUB0000311b RPS6KA3; settings: at 1 µM
[2] = target: T1, Serine/threonine-protein kinase Chk1 (Homo sapiens) (UniProt O14757); test: Selectivity interaction (Millipore kinase profiler) EUB0000124b CHEK1; settings: at 10 µM
T1 sequence (whole entry): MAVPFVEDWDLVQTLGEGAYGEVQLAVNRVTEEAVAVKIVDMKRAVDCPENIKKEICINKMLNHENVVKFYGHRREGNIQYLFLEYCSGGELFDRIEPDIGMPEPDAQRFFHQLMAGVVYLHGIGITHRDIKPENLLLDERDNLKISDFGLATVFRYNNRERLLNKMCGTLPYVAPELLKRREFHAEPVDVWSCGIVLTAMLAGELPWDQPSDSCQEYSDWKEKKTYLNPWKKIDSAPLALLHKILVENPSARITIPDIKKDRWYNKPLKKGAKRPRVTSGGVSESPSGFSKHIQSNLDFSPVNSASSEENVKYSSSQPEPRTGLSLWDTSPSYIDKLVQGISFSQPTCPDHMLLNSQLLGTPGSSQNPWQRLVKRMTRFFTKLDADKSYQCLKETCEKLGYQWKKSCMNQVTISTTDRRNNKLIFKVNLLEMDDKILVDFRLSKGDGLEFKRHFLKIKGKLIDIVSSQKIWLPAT

[3] = target: Phosphorylase b kinase gamma catalytic chain, skeletal muscle/heart isoform (Homo sapiens) (UniProt Q16816); test: Selectivity interaction (KinomeScan (DiscoverX)) EUB0000666a PHKG1; settings: at 10 µM
Sequence of Phosphorylase b kinase gamma catalytic chain, skeletal muscle/heart isoform (Homo sapiens) (Q16816 whole entry, looked up, canonical isoform): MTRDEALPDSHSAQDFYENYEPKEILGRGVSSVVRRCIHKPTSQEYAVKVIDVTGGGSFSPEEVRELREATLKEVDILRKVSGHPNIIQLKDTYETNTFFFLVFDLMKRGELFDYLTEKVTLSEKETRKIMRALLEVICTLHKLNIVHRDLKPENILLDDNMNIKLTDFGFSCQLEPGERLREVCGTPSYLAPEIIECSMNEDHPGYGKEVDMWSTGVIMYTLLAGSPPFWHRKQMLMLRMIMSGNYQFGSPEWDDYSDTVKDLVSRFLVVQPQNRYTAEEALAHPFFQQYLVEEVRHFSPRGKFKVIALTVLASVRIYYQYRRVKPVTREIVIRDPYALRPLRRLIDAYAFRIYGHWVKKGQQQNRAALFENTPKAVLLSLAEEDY

[4] = target: Mitogen-activated protein kinase kinase kinase 10 (Homo sapiens) (UniProt Q02779); settings: at 10 µM
[5] = target: Calcium/calmodulin-dependent protein kinase type II subunit alpha (Homo sapiens, UniProt Q9UQM7); test: Selectivity interaction (KinomeScan (DiscoverX)) EUB0000595a CAMK2A; settings: at 10 µM
[6] = target: Proto-oncogene tyrosine-protein kinase Src (Homo sapiens, UniProt P12931); test: Selectivity interaction (KinomeScan (DiscoverX)) EUB0000595a SRC; settings: at 10 µM
Sequence of Proto-oncogene tyrosine-protein kinase Src (P12931 2-536 limits assumed): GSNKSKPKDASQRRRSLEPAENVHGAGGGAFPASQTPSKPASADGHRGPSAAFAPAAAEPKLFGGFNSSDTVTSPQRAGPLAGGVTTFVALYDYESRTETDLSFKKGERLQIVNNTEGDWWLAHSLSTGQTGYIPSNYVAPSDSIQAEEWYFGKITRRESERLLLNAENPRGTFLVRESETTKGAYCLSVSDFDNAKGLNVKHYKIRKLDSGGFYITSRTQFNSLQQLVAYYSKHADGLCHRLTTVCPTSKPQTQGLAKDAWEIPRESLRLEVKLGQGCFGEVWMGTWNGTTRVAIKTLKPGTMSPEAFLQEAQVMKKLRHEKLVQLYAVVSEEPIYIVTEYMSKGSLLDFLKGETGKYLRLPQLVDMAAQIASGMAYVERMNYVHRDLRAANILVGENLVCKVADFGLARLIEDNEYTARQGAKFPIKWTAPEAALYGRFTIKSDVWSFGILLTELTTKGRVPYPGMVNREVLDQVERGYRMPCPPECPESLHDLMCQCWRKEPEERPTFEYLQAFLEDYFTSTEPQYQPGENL

[7] = target: Receptor tyrosine-protein kinase erbB-4 (Homo sapiens, UniProt Q15303); settings: at 10 µM
Sequence of Receptor tyrosine-protein kinase erbB-4 (Q15303 whole entry): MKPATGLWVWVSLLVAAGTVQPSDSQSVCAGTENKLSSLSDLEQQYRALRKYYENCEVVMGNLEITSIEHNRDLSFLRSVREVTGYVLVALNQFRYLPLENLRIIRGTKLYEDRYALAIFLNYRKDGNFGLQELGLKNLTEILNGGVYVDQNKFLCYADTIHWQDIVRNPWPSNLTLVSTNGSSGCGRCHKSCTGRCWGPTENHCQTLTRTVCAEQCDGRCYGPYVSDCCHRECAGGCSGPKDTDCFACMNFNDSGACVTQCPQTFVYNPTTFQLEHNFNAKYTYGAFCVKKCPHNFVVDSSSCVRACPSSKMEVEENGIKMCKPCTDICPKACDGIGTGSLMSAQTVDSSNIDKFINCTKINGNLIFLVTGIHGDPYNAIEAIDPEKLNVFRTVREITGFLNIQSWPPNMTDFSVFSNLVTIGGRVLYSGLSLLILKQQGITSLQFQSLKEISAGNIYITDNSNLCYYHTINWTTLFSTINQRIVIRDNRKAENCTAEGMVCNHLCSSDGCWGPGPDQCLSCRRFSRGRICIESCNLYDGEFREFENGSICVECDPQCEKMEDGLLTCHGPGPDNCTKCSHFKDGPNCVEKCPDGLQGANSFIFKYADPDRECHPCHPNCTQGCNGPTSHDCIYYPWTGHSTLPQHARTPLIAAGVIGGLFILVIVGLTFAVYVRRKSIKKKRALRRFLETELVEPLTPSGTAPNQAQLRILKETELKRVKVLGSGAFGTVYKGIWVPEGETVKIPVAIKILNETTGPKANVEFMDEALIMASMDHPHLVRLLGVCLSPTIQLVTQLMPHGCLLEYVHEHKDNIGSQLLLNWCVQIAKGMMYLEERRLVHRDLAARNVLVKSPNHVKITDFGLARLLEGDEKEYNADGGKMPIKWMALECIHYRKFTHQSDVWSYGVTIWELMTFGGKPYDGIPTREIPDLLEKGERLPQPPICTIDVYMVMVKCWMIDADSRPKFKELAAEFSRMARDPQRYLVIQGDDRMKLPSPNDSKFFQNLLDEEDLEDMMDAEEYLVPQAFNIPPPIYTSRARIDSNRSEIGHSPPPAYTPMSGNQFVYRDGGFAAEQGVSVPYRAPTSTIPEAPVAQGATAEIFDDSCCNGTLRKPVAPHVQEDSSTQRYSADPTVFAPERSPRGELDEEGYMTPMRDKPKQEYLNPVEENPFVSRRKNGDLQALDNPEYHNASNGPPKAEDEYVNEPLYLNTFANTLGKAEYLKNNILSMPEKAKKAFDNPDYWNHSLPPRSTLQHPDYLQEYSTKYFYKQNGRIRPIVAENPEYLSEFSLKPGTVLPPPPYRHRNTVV

[8] = target: Ribosomal protein S6 kinase alpha-1 (Homo sapiens, UniProt Q15418); test: Selectivity interaction (KinomeScan (DiscoverX)) EUB0001619a RPS6KA1; settings: at 1 µM
Sequence of Ribosomal protein S6 kinase alpha-1 (Q15418 whole entry): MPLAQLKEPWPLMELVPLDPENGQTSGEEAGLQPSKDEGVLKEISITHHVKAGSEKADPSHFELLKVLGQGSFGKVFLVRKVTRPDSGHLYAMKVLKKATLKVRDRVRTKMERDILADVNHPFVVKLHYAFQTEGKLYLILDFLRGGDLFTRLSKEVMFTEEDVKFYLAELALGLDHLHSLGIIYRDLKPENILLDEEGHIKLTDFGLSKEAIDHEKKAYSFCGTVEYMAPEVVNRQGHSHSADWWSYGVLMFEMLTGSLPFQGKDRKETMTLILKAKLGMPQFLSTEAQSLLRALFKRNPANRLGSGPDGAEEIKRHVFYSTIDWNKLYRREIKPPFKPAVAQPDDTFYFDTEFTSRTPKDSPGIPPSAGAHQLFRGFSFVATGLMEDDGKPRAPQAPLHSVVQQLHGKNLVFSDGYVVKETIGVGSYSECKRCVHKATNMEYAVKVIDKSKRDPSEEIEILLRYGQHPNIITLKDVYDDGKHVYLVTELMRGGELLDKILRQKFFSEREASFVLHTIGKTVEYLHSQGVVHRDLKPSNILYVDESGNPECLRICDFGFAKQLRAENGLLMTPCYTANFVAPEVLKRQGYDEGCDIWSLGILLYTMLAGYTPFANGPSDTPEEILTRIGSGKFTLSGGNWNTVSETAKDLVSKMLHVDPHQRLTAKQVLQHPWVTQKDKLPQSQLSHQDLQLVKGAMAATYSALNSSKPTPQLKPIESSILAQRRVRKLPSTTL

[9] = target: T2, Myosin-IIIb (Homo sapiens) (UniProt Q8WXR4); test: Selectivity interaction (KinomeScan (DiscoverX)) EUB0001619a MYO3B; settings: at 1 µM
T2 sequence (whole entry): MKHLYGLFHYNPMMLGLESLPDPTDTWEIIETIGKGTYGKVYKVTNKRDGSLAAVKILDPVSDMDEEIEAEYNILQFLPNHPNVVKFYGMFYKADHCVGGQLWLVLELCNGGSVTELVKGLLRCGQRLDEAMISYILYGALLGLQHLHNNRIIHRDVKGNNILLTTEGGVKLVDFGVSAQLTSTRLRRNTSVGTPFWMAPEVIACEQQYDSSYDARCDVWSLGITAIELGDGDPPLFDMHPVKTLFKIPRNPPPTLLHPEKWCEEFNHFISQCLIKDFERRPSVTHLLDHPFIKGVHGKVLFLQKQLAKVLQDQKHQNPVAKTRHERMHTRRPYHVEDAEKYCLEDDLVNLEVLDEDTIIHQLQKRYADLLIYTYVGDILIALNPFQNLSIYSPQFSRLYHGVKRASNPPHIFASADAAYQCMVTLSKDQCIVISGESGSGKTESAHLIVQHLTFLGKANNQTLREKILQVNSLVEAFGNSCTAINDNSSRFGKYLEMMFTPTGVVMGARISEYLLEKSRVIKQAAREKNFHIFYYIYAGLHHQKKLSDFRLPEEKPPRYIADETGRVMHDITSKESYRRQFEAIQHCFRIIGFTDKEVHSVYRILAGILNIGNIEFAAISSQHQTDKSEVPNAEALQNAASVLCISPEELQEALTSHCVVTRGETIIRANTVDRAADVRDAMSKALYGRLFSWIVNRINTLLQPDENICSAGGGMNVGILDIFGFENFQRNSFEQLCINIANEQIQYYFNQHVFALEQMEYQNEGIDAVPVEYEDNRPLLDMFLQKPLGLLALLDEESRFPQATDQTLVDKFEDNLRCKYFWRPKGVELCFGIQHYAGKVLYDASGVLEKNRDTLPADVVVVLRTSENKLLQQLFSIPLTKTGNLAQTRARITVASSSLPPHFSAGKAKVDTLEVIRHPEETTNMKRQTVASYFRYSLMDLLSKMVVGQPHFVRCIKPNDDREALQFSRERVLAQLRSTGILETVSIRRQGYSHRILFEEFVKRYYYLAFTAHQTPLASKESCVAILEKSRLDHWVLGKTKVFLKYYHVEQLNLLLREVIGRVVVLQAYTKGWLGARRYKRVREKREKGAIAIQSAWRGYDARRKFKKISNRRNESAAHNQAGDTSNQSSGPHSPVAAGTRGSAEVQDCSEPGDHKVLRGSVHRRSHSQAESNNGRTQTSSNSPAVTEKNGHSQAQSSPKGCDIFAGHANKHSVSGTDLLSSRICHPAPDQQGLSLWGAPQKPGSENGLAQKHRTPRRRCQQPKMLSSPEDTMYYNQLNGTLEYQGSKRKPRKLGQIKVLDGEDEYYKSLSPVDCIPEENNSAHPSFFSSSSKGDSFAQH

[10] = target: Rho-associated protein kinase 2 (Homo sapiens, UniProt O75116); test: Selectivity interaction (KinomeScan (DiscoverX)) EUB0000655a ROCK2; settings: at 10 µM
Sequence of Rho-associated protein kinase 2 (O75116 whole entry, looked up): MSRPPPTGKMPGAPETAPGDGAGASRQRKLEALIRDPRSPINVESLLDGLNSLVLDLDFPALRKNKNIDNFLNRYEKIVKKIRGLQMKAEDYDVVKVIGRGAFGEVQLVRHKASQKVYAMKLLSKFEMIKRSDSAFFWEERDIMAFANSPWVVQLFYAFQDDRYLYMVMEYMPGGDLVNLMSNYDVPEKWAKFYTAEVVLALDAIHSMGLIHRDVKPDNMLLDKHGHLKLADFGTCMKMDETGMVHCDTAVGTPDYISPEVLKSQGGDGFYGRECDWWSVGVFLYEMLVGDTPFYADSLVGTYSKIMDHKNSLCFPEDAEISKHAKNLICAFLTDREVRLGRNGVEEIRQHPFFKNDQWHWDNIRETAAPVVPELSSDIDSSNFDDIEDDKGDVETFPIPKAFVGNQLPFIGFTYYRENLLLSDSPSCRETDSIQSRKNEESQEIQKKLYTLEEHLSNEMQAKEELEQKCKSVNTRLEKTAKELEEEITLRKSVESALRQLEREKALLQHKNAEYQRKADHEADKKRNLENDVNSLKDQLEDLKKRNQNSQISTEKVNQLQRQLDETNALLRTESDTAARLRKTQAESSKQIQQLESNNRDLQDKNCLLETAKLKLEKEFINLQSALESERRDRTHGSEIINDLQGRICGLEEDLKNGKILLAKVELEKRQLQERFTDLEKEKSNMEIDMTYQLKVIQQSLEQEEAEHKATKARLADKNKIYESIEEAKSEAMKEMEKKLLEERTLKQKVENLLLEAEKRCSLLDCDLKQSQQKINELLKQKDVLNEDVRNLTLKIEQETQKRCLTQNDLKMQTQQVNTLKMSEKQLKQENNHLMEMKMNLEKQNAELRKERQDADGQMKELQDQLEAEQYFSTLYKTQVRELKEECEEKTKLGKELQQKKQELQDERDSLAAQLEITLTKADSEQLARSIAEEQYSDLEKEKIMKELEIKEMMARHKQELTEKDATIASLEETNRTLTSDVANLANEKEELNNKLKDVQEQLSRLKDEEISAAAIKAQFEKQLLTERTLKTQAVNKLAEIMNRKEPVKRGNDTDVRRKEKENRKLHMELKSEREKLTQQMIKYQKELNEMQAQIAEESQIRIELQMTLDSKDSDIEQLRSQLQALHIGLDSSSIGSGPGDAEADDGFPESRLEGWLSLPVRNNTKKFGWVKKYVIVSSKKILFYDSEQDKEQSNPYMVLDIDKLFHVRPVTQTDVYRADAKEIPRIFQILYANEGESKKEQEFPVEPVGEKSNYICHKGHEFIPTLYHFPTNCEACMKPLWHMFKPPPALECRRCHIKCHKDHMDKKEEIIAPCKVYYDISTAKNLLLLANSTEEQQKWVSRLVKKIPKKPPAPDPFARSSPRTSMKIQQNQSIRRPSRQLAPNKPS

[11] = target: Proto-oncogene tyrosine-protein kinase ROS (Homo sapiens) (UniProt P08922); test: Selectivity interaction (KinomeScan (DiscoverX)) EUB0000655a ROS1; settings: at 10 µM
[12] = target: Casein kinase I isoform gamma-1 (Homo sapiens) (UniProt Q9HCP0); test: Selectivity interaction (SelectScreen profiling (Invitrogen)) EUB0000607a CSNK1G1; settings: at 2 µM
[13] = target: SRSF protein kinase 2 (Homo sapiens) (UniProt P78362); test: Selectivity interaction (Kinase panel (Z-LYTE Assay)) EUB0001632a SRPK2; settings: at 10 µM

Sequence of Ribosomal protein S6 kinase alpha-3 (P51812 whole entry): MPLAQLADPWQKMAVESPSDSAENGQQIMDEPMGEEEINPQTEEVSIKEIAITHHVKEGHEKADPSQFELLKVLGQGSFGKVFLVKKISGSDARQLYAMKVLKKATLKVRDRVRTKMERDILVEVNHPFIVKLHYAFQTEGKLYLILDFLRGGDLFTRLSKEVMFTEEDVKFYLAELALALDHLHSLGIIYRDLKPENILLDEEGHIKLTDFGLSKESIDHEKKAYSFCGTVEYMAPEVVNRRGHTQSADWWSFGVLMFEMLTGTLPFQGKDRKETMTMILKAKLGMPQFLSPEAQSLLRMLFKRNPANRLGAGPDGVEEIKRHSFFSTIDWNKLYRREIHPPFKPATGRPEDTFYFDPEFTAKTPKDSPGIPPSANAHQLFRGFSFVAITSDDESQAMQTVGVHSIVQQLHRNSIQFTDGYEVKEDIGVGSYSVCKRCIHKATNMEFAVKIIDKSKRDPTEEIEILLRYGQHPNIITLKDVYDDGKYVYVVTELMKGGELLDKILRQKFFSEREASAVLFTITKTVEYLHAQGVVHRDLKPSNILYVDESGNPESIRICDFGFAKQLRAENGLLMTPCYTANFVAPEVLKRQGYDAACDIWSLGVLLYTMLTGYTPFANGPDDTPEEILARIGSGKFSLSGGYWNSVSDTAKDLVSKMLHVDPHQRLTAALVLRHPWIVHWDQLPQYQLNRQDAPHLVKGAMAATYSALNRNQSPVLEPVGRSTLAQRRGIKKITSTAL

Structure (SMILES): CCc1ccccc1C(=O)Nc1n[nH]c2c(C)c(F)c(C3C(C#N)=C(C)N(C)C(C)=C3C#N)cc12 [BAY-3827]
- % of control [1]: 0.3%

Structure (SMILES): CC(=O)Nc1cccc(-n2c(=O)n(C3CC3)c(=O)c3c(Nc4ccc(I)cc4F)n(C)c(=O)c(C)c32)c1
- % of control [2]: 113%

Structure (SMILES): O=C(NOC[C@H](O)CO)c1ccc(F)c(F)c1Nc1ccc(I)cc1F
- % of control [3]: 100%

Structure (SMILES): CCN(CC)CCCCNc1ncc2cc(-c3cc(OC)cc(OC)c3)c(NC(=O)NC(C)(C)C)nc2n1
- % of control [4]: 100%

Structure (SMILES): COCC(=O)NC/C=C/c1ccc2ncnc(Nc3ccc(Oc4ccc(C)nc4)c(C)c3)c2c1 [CP-724714]
- % of control [5]: 93%
- % of control [6]: 97%

Structure (SMILES): Cc1cc([C@@H](C)Nc2ccccc2C(=O)O)c2nc(N3CCOCC3)cc(=O)n2c1 [AZD-6482]
- % of control [7]: 100%

Structure (SMILES): N#Cc1cccc(-c2c[nH]c3ncnc(N4CCOCC4)c23)c1
- % of control [8]: 27%
- % of control [9]: 100%

Structure (SMILES): CN(C)CCOc1ccc(-c2nc(-c3ccncc3)c(-c3ccc4c(c3)CC/C4=N\O)[nH]2)cc1
- % of control [10]: 47%
- % of control [11]: 88%

Structure (SMILES): CNC(=O)Nc1ccc(-c2nc(N3CC4CCC(C3)O4)c3cnn(C4CCC5(CC4)OCCO5)c3n2)cc1
- % of inhibition [12]: -2%

Structure (SMILES): Cn1cc(-n2cnc3c(NCc4nc5cc(Cl)c(Cl)cc5[nH]4)nc(N4CCOCC4)nc32)cn1
- % of control [13]: -0.444%
